Test system: THP1 cells, activated T-cells (ATC), J:CXCR1 cells
Assay: Meta-analysis of individual chemokine-induced cell migration experiments
Type: cell-based, human
Settings: seven CC and three CXC chemokines, Dunnett's test
Procedure: Cell migration assays were performed as follows. THP1 cell migration. Briefly, 300000 cells/well were added to the top chamber of a 5-µm 96-well Transwell insert (3387, Corning) in 50 µL of cell migration media (RPMI-1640 (R0883, Sigma), 0.5% FBS (F9665, Sigma), 4mM L-Glutamine (G7513, Sigma), 0.05% DMSO (D4540, Sigma)). The bottom chamber contained 150 µL of migration media with chemokine and peptide. Cells were migrated at 37 °C in 5% CO2 for 4 h. J:CXCR1 cell migration was performed exactly as above using a 3-µm Transwell insert (3385, Corning). Activated T-cell migration. Briefly, 100000 cells/well were added to the top chamber of a 3-µm Transwell insert (3385, Corning) in 50 µL of migration media (HBSS (14025-092, Life Technologies), 0.1% protease free bovine serum albumin (A7030, Sigma), 0.05% DMSO (D4540, Sigma)). The bottom chamber contained 150 µL of migration media with chemokine and peptide. Cells were migrated at 37 °C in 5% CO2 for 2 h. Buffy coat migration. Briefly, a mixture of all cell types at 100000 cells/well were added to the top chamber of a 3-µm Transwell insert (3385, Corning) in 50 µL of migration media (HBSS (14025-092, Life Technologies), 0.1% protease free bovine serum albumin (A7030, Sigma), 0.05% DMSO (D4540, Sigma). The bottom chamber contained 150 µL of migration media with chemokine and peptide. Cells were migrated at 37 °C in 5% CO2 for 2 h. Analysis of cell migration. The migration plate was shaken at 850 RPM for 10 min, and media from bottom plate transferred to a round-bottomed 96 well plate (353910, Falcon). Cells were counted by flow cytometry as described above. Experiments were performed at chemokine EC80 for individual chemotaxis experiments and at EC50 for the pooled chemokine experiments, with three technical replicates, and at least three biological replicates. Statistical significance of differences between control and test groups was evaluated using a two-sided Dunnett’s test with multiple testing correction. Chemokine EC80 or chemokine pool EC50 values were as determined by performing a chemokine dose-response against the cell type and fitting the dose-response curve with a 3-parameter log-logistic model, where the maximal response is fixed at 100% response. […] IC50 was determined by performing inhibitor dose-response experiments and fitting the dose-response curve with a 3-parameter log-logistic model, fixing the bottom of the curve to zero. […] For summary statistics and comparisons, pEC50, pEC80 and pIC50 were calculated as the negative log10 of EC50, EC80 or IC50 expressed in moles/litre.
Sample size and estimated effect sizes were not formally calculated for cell-based or phage-display experiments and no randomization was performed. […]

Sequence	migrated cell count over all chemokines studied, compared to HD2 (meta-analysis)
EEDDWTAYAPLTCYFT [HD2Y5W, HD2 point mutant]	significant improvement over HD2
EEDDYWAYAPLTCYFT [HD2T6W, HD2 point mutant]	significant improvement over HD2

Reference: publication PMC11969024, “Development of chemokine network inhibitors using combinatorial saturation mutagenesis” (Communications Biology, 2025)
